Test results reported in ChEMBL document CHEMBL6092135, “Current development and structure-activity relationship study of berberine derivatives” (Bioorg Med Chem, 2024).

Experiments:
[1] = test system: Candida albicans; test: Antifungal activity against Candida albicans ATCC 10231 assessed as reduction in fungal growth by NCCLS method; type: functional
[2] = test system: Aspergillus niger; test: Antifungal activity against Aspergillus niger assessed as inhibition of fungal growth incubated for 48 hrs by CLSI protocol based analysis; type: functional
[3] = test system: Cryptococcus neoformans; test: Antifungal activity against Cryptococcus neoformans assessed as fungal growth inhibition by CLSI based method; type: functional
[4] = test system: SMMC-7721; test: Antiproliferative activity against human SMMC-7721 cells assessed as reduction in cell growth; type: functional, cell-based
[5] = test system: HepG2; test: Antiproliferative activity against human HepG2 cells assessed as reduction in cell growth; type: functional, cell-based
[6] = Antiproliferative activity against human QGY-7701 cells assessed as reduction in cell growth; type: functional, cell-based; details: QGY7701
[7] = test system: CEM-VCR; test: Antiproliferative activity against human CEM-VCR cells assessed as reduction in cell growth; type: functional, cell-based
[8] = test system: Lewis lung carcinoma cell line; test: Cytotoxicity against mouse Lewis lung carcinoma cell line; type: functional, cell-based
[9] = test system: HCT-116; test: Cytotoxicity against human HCT-116 cells assessed as reduction in cell viability incubated for 24 hrs by MTT assay; type: functional, cell-based; details: HCT-116, 24 h
[10] = test system: C6; test: Antiproliferative activity against rat C6 cells assessed as inhibition of cell growth incubated for 72 hrs by Sulforhodamine B assay; type: functional, cell-based; details: C6, 72 h
[11] = test system: BFTC-905; test: Antiproliferative activity against human BFTC-905 cells assessed as reduction in cell viability; type: functional, cell-based
[12] = test system: HepG2; test: Cytotoxicity against human HepG2 cells assessed as reduction in cell viability by MTT assay; type: functional, cell-based
[13] = test system: HT-29; test: Antiproliferative activity against human HT-29 cells assessed as reduction in cell viability incubated for 24 hrs by MTT assay; type: functional, cell-based; details: HT-29, 24 h
[14] = test system: Candida albicans; test: Antifungal activity against Candida albicans assessed as reduction in fungal growth incubated for 12 hrs by microdilution method; type: functional
[15] = Antioxidant activity assessed as DPPH radical scavenging activity measured for 30 mins by spectrophotometric analysis; type: functional
[16] = test system: Ca-Ski; test: Cytotoxicity against human Ca-Ski cells assessed as reduction in cell viability measured after 48 hrs by SRB assay; type: functional, cell-based
[17] = test system: HeLa; test: Cytotoxicity against human HeLa cells assessed as reduction in cell viability measured after 48 hrs by SRB assay; type: functional, cell-based
[18] = test system: Listeria monocytogenes; test: Antibacterial activity against Listeria monocytogenes ATCC 19111 assessed as reduction in bacterial growth incubated for 20 to 24 hrs by microbroth serial dilution assay; type: functional; details: time 20-24 hrs
[19] = test system: Salmonella typhimurium; test: Antimicrobial activity against Salmonella enterica subsp. enterica serovar Typhimurium LT2 assessed as inhibition of bacterial growth measured for 24 hrs by broth micro-dilution method; type: functional
[20] = test system: Plasmodium falciparum; test: Antiplasmodial activity against Plasmodium falciparum 3D7 assessed as inhibition of parasite growth measured for 42 hrs by SYBR Green staining based fluorescence analysis; type: functional, organism-based; details: 3D7, 42 h
[21] = test system: A549; test: Antiproliferative activity against human A549 cells assessed as reduction in cell viability incubated for 24 hrs by CCK-8 assay; type: functional, cell-based; details: A549, 24 h
[22] = test system: HeLa; test: Anticancer activity against human HeLa cells; type: functional, cell-based
[23] = test system: A549; test: Anticancer activity against human A549 cells; type: functional, cell-based
[24] = target: DNA topoisomerase 1 (Homo sapiens, UniProt P11387); test: Inhibition of Topoisomerase 1 (unknown origin)
DNA topoisomerase 1, sequence (P11387 whole entry): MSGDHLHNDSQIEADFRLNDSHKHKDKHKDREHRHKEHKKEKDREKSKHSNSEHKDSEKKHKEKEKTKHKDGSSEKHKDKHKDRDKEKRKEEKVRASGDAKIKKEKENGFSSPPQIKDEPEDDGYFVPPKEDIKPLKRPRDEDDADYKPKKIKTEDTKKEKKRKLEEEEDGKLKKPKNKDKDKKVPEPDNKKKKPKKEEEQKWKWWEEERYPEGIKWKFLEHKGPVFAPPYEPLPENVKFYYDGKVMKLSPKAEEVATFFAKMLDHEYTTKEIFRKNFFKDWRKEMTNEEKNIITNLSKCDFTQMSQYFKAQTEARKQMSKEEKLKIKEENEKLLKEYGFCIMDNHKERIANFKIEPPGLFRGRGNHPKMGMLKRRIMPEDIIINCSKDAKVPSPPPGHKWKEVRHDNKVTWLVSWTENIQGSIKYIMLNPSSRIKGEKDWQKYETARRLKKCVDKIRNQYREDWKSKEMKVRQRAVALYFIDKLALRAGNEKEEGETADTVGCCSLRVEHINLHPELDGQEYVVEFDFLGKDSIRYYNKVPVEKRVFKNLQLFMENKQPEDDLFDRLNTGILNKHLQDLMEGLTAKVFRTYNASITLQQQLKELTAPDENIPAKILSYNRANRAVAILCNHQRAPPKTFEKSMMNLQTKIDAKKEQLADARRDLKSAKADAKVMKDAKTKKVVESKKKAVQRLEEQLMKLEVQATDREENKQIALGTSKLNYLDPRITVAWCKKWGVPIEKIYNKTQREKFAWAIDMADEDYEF

[25] = test system: Escherichia coli; test: Antibacterial activity against Escherichia coli ATCC 25922 assessed as bacterial growth inhibition measured after 48 hrs by resazurin assay; type: functional
[26] = test system: Enterovirus A71; test: Antiviral activity against human EV71 infected in human RD cells assessed as inhibition of cytopathic effect by microscopy based analysis; type: functional, organism-based; details: Enterovirus A
[27] = test system: CCRF-CEM; test: Antiproliferative activity against human CEM cells assessed as reduction in cell viability measured after 3 to 4 days by MTT assay; type: functional, cell-based
[28] = test system: Mycobacterium tuberculosis; test: Antimycobacterial activity against Mycobacterium tuberculosis H37Rv assessed as reduction in bacterial growth incubated for 7 days by resazurin based assay; type: functional; details: 168 h, time 7 day
[29] = test system: Coxsackievirus B3; test: Antiviral activity against Coxsackievirus B3 infected in human HEp-2 cells assessed as inhibition of virus-induced cytopathic effect measured after 48 hrs by MTT assay; type: functional, organism-based; details: Enterovirus B, HEp-2, 48 h
[30] = test system: Enterococcus faecalis; test: Antibacterial activity against Enterococcus faecalis ATCC 29212 assessed as reduction in microbial growth after 16 hrs by broth microdilution method; type: functional
[31] = test system: Bacillus cereus; test: Antibacterial activity against Bacillus cereus ATCC 27348 assessed as inhibition of bacterial growth incubated for 18 hrs by microdilution method; type: functional
[32] = test system: Bacillus anthracis; test: Antibacterial activity against Bacillus anthracis; type: functional
[33] = test system: Enterococcus faecium; test: Antibacterial activity against Enterococcus faecium ATCC 19434 assessed as reduction in microbial growth measured after 24 hrs by two-fold serial dilution method; type: functional
[34] = test system: Staphylococcus aureus; test: Antibacterial activity against Staphylococcus aureus ATCC 25923 assessed as reduction in bacterial growth incubated for 24 hrs by serial dilution method; type: functional
[35] = test system: Staphylococcus aureus; test: Antibacterial activity against Staphylococcus aureus ATCC 25923 assessed as reduction in microbial growth measured after 24 hrs by spectrophotometric method; type: functional

## COc1ccc2c(Cc3ccc(C(C)(C)C)cc3)c3[n+](cc2c1OC)CCc1cc2c(cc1-3)OCO2
[1]
  MIC: 1.56 µg/mL

## CCCCOc1c(OC)ccc2c(Cc3ccc(C(C)C)cc3)c3[n+](cc12)CCc1cc2c(cc1-3)OCO2.[Cl-]
[2]
  MIC: 0.25 µg/mL
[3]
  MIC: 0.25 µg/mL

## CCCCCCCCc1c2[n+](cc3c(OC)c(OC)ccc13)CCc1cc3c(cc1-2)OCO3
[4]
  IC50: 0.02 µM
[5]
  IC50: 0.02 µM
[6]
  IC50: 0.02 µM
[7]
  IC50: 0.02 µM
[8]
  IC50: 0.02 µM

## COc1ccc2c(c[n+]3c4c2ccc2c5c(cc(c24)CC3)OCO5)c1OC(=O)c1ccccc1
[9]
  IC50: 0.47 µM

## CCCCCCCCCCCCc1c2[n+](cc3c(OC)c(OC)ccc13)CCc1cc3c(cc1-2)OCO3
[10]
  IC50: 0.77 µM
[11]
  IC50: 0.77 µM
[12]
  IC50: 0.77 µM
[13]
  IC50: 0.77 µM

## COc1ccc2c(Cc3ccc(C(C)C)cc3)c3[n+](cc2c1O)CCc1cc2c(cc1-3)OCO2.[Cl-]
[14]
  MIC: 1 µg/mL

## COc1cc(CN2CCN(c3ccc(C)cc3C)CC2)c2cc3[n+](cc2c1O)CCc1cc2c(cc1-3)OCO2
[15]
  IC50: 19.8 µM
[16]
  IC50: 5.75 µM
[17]
  IC50: 7.33 µM

## COc1cc(CN2CCN(C(c3ccccc3)c3ccccc3)CC2)c2cc3[n+](cc2c1O)CCc1cc2c(cc1-3)OCO2.[Cl-]
[18]
  MIC: 200 µg/mL

## COc1cc(CN2CCN(c3ccc(F)cc3F)CC2)c2cc3[n+](cc2c1O)CCc1cc2c(cc1-3)OCO2
[15]
  IC50: 19.8 µM
[16]
  IC50: 5.75 µM
[17]
  IC50: 7.33 µM

## COc1cc(CN2CCN(c3ccccc3Cl)CC2)c2cc3[n+](cc2c1O)CCc1cc2c(cc1-3)OCO2.[Cl-]
[18]
  MIC: 200 µg/mL

## COc1ccc(N2CCN(Cc3cc(OC)c(O)c4c[n+]5c(cc34)-c3cc4c(cc3CC5)OCO4)CC2)c(OC)c1
[15]
  IC50: 19.8 µM
[16]
  IC50: 5.75 µM
[17]
  IC50: 7.33 µM

## COc1cc(CN2CCN(c3cccc(Cl)c3Cl)CC2)c2cc3[n+](cc2c1O)CCc1cc2c(cc1-3)OCO2
[15]
  IC50: 19.8 µM
[16]
  IC50: 5.75 µM
[17]
  IC50: 7.33 µM

## COc1cc(CN2CCN(c3ccc(Cl)c(Cl)c3)CC2)c2cc3[n+](cc2c1O)CCc1cc2c(cc1-3)OCO2
[15]
  IC50: 19.8 µM
[16]
  IC50: 5.75 µM
[17]
  IC50: 7.33 µM

## COc1cc(Cn2ccnc2)c2cc3[n+](cc2c1O)CCc1cc2c(cc1-3)OCO2.[Cl-]
[19]
  MIC: 1 µg/mL

## COc1cc(CN2CCN(c3cccc(C)c3C)CC2)c2cc3[n+](cc2c1O)CCc1cc2c(cc1-3)OCO2
[15]
  IC50: 19.8 µM
[16]
  IC50: 5.75 µM
[17]
  IC50: 7.33 µM

## COc1cc(CN2CCN(c3cccc(F)c3F)CC2)c2cc3[n+](cc2c1O)CCc1cc2c(cc1-3)OCO2
[15]
  IC50: 19.8 µM
[16]
  IC50: 5.75 µM
[17]
  IC50: 7.33 µM

## COc1cc(CN2CCN(c3ccc(Cl)cc3Cl)CC2)c2cc3[n+](cc2c1O)CCc1cc2c(cc1-3)OCO2
[15]
  IC50: 19.8 µM
[16]
  IC50: 5.75 µM
[17]
  IC50: 7.33 µM

## COc1ccc2cc3[n+](cc2c1OCc1cn(-c2ccc(S(=O)(=O)N4CCOCC4)cc2)nn1)CCc1cc2c(cc1-3)OCO2.[Cl-]
[20]
  IC50: 0.2 µg/mL

## COc1ccc2cc3[n+](cc2c1OCc1cn(-c2ccc(S(=O)(=O)Nc4ccc(F)cc4)cc2)nn1)CCc1cc2c(cc1-3)OCO2.[Cl-]
[20]
  IC50: 0.2 µg/mL

## COc1ccc2cc3[n+](cc2c1OCc1cn(-c2ccc(S(=O)(=O)Nc4ccc(Cl)cc4)cc2)nn1)CCc1cc2c(cc1-3)OCO2.[Cl-]
[20]
  IC50: 0.2 µg/mL

## COc1ccc2cc3[n+](cc2c1OCc1cn(-c2ccc(S(N)(=O)=O)cc2)nn1)CCc1cc2c(cc1-3)OCO2.[Cl-]
[20]
  IC50: 0.2 µg/mL

## CCCCCCN(CCCCCC)c1cc(OC)c(O)c2c[n+]3c(cc12)-c1cc2c(cc1CC3)OCO2
[21]
  IC50: 0.29 µM

## COc1ccc2cc3[n+](cc2c1OCCn1cccn1)CCc1cc2c(cc1-3)OCO2
[22]
  IC50: 8.99 µM
[23]
  IC50: 8.99 µM

## COc1ccc2c(c1OS(=O)(=O)c1c(F)c(F)cc(F)c1F)CN1CCc3cc4c(cc3C1C2)OCO4 (stereo unspecified)
[24]
  IC50: 1.05 µM

## COc1ccc2c(c1NS(=O)(=O)c1ccc(Cl)cc1)C[N+]1(S(=O)(=O)c3ccc(Cl)cc3)CCc3cc4c(cc3C1C2)OCO4 (stereo unspecified)
[25]
  MIC: 0.5 µg/mL

## COc1ccc2cc3[n+](cc2c1OCCn1nc(C)c(Cl)c1C)CCc1cc2c(cc1-3)OCO2
[22]
  IC50: 8.99 µM
[23]
  IC50: 8.99 µM

## COc1ccc2cc3[n+](cc2c1OCC(=O)OCc1ccccc1)CCc1cc2c(cc1-3)OCO2
[26]
  IC50: 7.12 µM

## COc1ccc2c(CCCc3ccccc3)c3[n+](cc2c1OC)CCc1cc2c(cc1-3)OCO2
[27]
  IC50: 0.21 µM

## COc1ccc2cc3[n+](cc2c1OCCn1nc(C)cc1C)CCc1cc2c(cc1-3)OCO2
[22]
  IC50: 8.99 µM
[23]
  IC50: 8.99 µM

## COc1ccc2cc3[n+](cc2c1OCCn1nc(C)c(Br)c1C)CCc1cc2c(cc1-3)OCO2
[22]
  IC50: 8.99 µM
[23]
  IC50: 8.99 µM

## CCCCCCC1c2cc(OC)c(OC)cc2C=C2c3cc4c(cc3CCN21)OCO4.Cl (stereo unspecified)
[28]
  MIC: 1 µg/mL

## COc1ccc2cc3[n+](cc2c1)CCc1cc(OCCOCCN)c(OC)cc1-3
[29]
  IC50: 3.08 µM

## COc1cc2c(cc1OC)C(c1ccccc1)N1CCc3cc4c(cc3C1=C2)OCO4.Cl (stereo unspecified)
[28]
  MIC: 1 µg/mL

## CCCCCOC(=O)COc1c(OC)ccc2cc3[n+](cc12)CCc1cc2c(cc1-3)OCO2
[26]
  IC50: 7.12 µM

## CCOC(=O)COc1c(OC)ccc2cc3[n+](cc12)CCc1cc2c(cc1-3)OCO2
[26]
  IC50: 7.12 µM

## Br.COc1ccc2c(Cc3ccccc3-c3cc4cc([N+](=O)[O-])ccc4[nH]3)c3[n+](cc2c1OC)CCc1cc2c(cc1-3)OCO2
[30]
  MIC: 3.12 µg/mL
[31]
  MIC: 3.12 µg/mL
[32]
  MIC: 3.12 µg/mL
[33]
  MIC: 3.12 µg/mL
[34]
  MIC: 3.12 µg/mL

## CCCOc1c(OC)cc(/C=C2\SC(=O)NC2=O)c2c1CN1CCc3cc4c(cc3C1C2)OCO4 (stereo unspecified)
[35]
  MIC: 0.008 µg/mL

## O=C1O[C@H]([C@@H](O)CO)C(O)=C1O [ASCORBIC ACID]
[15]
  IC50: 61 µM

## COc1ccc2cc3[n+](cc2c1OC)CCc1cc2c(cc1-3)OCO2 [BERBERINE]
[15]
  IC50: 89.2 µM
[16]
  IC50: 15.2 µM
[17]
  IC50: 13.4 µM
[35]
  MIC: 0.698 µg/mL

## N=C(N)c1ccc(-c2ccc(-c3ccc(C(=N)N)cc3)o2)cc1 [FURAMIDINE]
[24]
  IC50: 1.2 µM

## CCn1cc(C(=O)O)c(=O)c2cc(F)c(N3CCNCC3)cc21 [NORFLOXACIN]
[35]
  MIC: 0.025 µg/mL
